The values that follow come from ChEMBL document CHEMBL4402571, “Methylation of Daptomycin Leading to the Discovery of Kynomycin, a Cyclic Lipodepsipeptide Active against Resistant Pathogens” (J Med Chem, 2020).

Usually MIC stands for the smallest concentration in the dilution series that meets the test's criterion for growth inhibition.

≈ marks a conversion by molar mass, not a printed value. Calls of active or inactive are those of the source.

Series [1] has as its system Staphylococcus aureus. Kind of series: Antibacterial activity against daptomycin-resistant Staphylococcus aureus SA11 infected in NIH mouse model of neutropenic thigh infection assessed reduction in bacterial level in thigh at 50 mg/kg, sc administered at 2 and 12 hrs post infection and measured at 48 to 60 hrs post-infection. It is filed as functional, organism-based.

Series [2] relates to Staphylococcus aureus. Kind of series: Bactericidal activity against Staphylococcus aureus ATCC 29213 assessed as reduction in bacterial load at 4 to 8 ug/ml preincubated for up to 24 hrs followed by subculturing on LB agar plate by time-kill assay. The series is classed as functional, organism-based.
In series [3] the test system is Enterococcus faecalis. Briefly: Induction of cell membrane integrity disruption in Enterococcus faecalis ATCC 29212 at 8 to 32 ug/ml measured after 0.5 to 2 hrs by SYTOX green staining based fluorescence assay. The series is classed as organism-based.
The test system of series [4] is Staphylococcus aureus. Kind of series: Antibacterial activity against Staphylococcus aureus USA300 infected in Balb/c mouse model of sepsis assessed as bacterial eradication in kidney at 1.25 mg/kg, sc administered twice daily for 3 days starting from 1 hr post-infection followed by subculturing on LB agar plate and measured after overnight incubation. It is filed as functional, organism-based.

The test system of series [5] is Staphylococcus aureus. Briefly: Induction of cell membrane integrity disruption in Staphylococcus aureus ATCC 29213 at 8 ug/ml measured after 0.5 to 2 hrs by SYTOX green staining based fluorescence assay. It is filed as organism-based.
Series [6] deals with Staphylococcus aureus. Briefly: Bactericidal activity against Staphylococcus aureus ATCC 29213 assessed as reduction in bacterial load at 16 ug/ml preincubated for 24 hrs followed by subculturing on LB agar plate by time-kill assay. It is filed as functional, organism-based.
Series [7] deals with Staphylococcus aureus. Kind of series: Antibacterial activity against daptomycin-resistant Staphylococcus aureus SA11 infected in Galleria mellonella larvae assessed as increase in larvae survival at 50 mg/kg measured up to 72 hrs post-infection. The series is classed as functional, organism-based.
Series [8] concerns Enterococcus faecalis. Briefly: Antibacterial activity against Enterococcus faecalis ATCC 29212 at sub-MIC after 7 serial passages by broth microdilution method. The series is classed as functional, organism-based.
The test system of series [9] is Enterococcus faecalis. Kind of series: Induction of cell membrane integrity disruption in Enterococcus faecalis ATCC 29212 at 16 ug/ml measured after 1 hr by SYTOX green staining based confocal laser scanning microscopic analysis. It is filed as organism-based.
In series [10] the test system is Enterococcus faecalis. Kind of series: Bactericidal activity against Enterococcus faecalis ATCC 29212 assessed as reduction in bacterial load at 4 to 16 ug/ml preincubated for up to 24 hrs followed by subculturing on LB agar plate by time-kill assay. It is filed as functional, organism-based.
The subject of series [11] is Staphylococcus aureus. Kind of series: Antibacterial activity against Staphylococcus aureus ATCC 29213 at sub-MIC after 7 serial passages by broth microdilution method. It is filed as functional, organism-based.
Series [12] deals with Staphylococcus aureus. Kind of series: Antibacterial activity against methicillin-resistant Staphylococcus aureus ATCC 43300 infected in Galleria mellonella larvae assessed as increase in larvae survival at 50 mg/kg measured up to 72 hrs post-infection. The series is classed as functional, organism-based.
Series [13] deals with Enterococcus faecalis. Briefly: Antibacterial activity against daptomycin-resistant Enterococcus faecalis T1027 infected in NIH mouse model of neutropenic thigh infection assessed reduction in bacterial level in thigh at 50 mg/kg, sc administered at 2 and 12 hrs post infection and measured at 48 to 60 hrs post-infection. The series is classed as functional, organism-based.

A further series relates to Erythrocyte. Briefly: Hemolytic activity against rat RBC at 320 ug/ml measured after 1 hr. It is filed as ADME, cell-based.
For a further series, the system named is HEK293. Kind of series: Cytotoxicity against HEK293 cells assessed as reduction in cell viability at >= 20 mg/ml measured after 24 hrs by MTT assay. The series is classed as cell-based. The following applies: human, hek293, 24 h. A general note: Tetrazolium assays rely on reduction of a dye to a coloured formazan, in cell work by metabolically active cells.

A short description of series [14]: Aqueous solubility of the compound in 0.9% NaCl at >= 100 measured after 15 mins. It is filed as physicochemical. The following applies: buffer, 0.25 h.
In series [15] the test system is Staphylococcus aureus. Kind of series: Antibacterial activity against methicillin-resistant Staphylococcus aureus SA14 by broth microdilution method. It is filed as functional. (In general: Dilution methods test growth across graded concentrations, often in twofold steps.)
Series [16] has as its system Staphylococcus aureus. Kind of series: Antibacterial activity against methicillin-resistant Staphylococcus aureus SA86 by broth microdilution method. The series is classed as functional.
Series [17] deals with Staphylococcus aureus. Kind of series: Antibacterial activity against methicillin-resistant Staphylococcus aureus SA88 by broth microdilution method. The series is classed as functional.
Series [18] deals with Enterococcus faecium. Kind of series: Antibacterial activity against Enterococcus faecium ET6 by broth microdilution method. The series is classed as functional.
Series [19] deals with Enterococcus faecium. Briefly: Antibacterial activity against Enterococcus faecium ET60 by broth microdilution method. It is filed as functional.
Series [20] concerns Staphylococcus aureus. Briefly: Antibacterial activity against Staphylococcus aureus ATCC 29213 by broth microdilution method. The series is classed as functional.
In series [21] the test system is Staphylococcus aureus. Briefly: Antibacterial activity against methicillin-resistant Staphylococcus aureus SA11 by broth microdilution method. The series is classed as functional.
Series [22] relates to Enterococcus faecalis. Briefly: Antibacterial activity against Enterococcus faecalis ATCC 29212 by broth microdilution method. The series is classed as functional.
Series [23] concerns Enterococcus faecalis. Briefly: Antibacterial activity against Enterococcus faecalis T1027 infected in Galleria mellonella larvae assessed as increase in larvae survival at 50 mg/kg measured 96 hrs post-infection. It is filed as functional, organism-based.
In series [24] the test system is Enterococcus faecalis. Briefly: Antibacterial activity against Enterococcus faecalis ZS129 infected in Galleria mellonella larvae assessed as increase in larvae survival at 50 mg/kg measured up to 72 hrs post-infection. The series is classed as functional, organism-based.
Series [25] deals with Enterococcus faecalis. Briefly: Induction of cell membrane integrity disruption in Enterococcus faecalis ATCC 29212 at 16 ug/ml measured after 0.5 to 2 hrs by SYTOX green staining based fluorescence assay. The series is classed as organism-based.
Series [26] relates to Enterococcus faecalis. Briefly: Bactericidal activity against Enterococcus faecalis ATCC 29212 assessed as reduction in bacterial load at 16 ug/ml preincubated for up to 24 hrs followed by subculturing on LB agar plate by time-kill assay. It is filed as functional, organism-based.

Consider `CCCCCCCCCC(=O)N[C@@H](Cc1c[nH]c2ccccc12)C(=O)N[C@@H](CC(N)=O)C(=O)N[C@@H](CC(=O)O)C(=O)N[C@@H]1C(=O)NCC(=O)N[C@@H](CCCN)C(=O)N[C@@H](CC(=O)O)C(=O)N[C@H](C)C(=O)N[C@@H](CC(=O)O)C(=O)NCC(=O)N[C@H](CO)C(=O)N[C@@H]([C@H](C)CC(=O)O)C(=O)N[C@@H](CC(=O)c2ccccc2NC)C(=O)O[C@@H]1C`, for which the result in the series on Staphylococcus aureus [1], with Staphylococcus aureus [2], in the series with Enterococcus faecalis [3], in the series on Staphylococcus aureus [4], in the series on Staphylococcus aureus [5] and in the series on Staphylococcus aureus [6] was Active. For the same compound, the outcome in the series on Staphylococcus aureus [7], in the series on Enterococcus faecalis [9], in the series on Enterococcus faecalis [10], in the series on Staphylococcus aureus [11], in the series on Staphylococcus aureus [12] and in the series with Enterococcus faecalis [13] was Active. Besides, the result in the series on Enterococcus faecalis [8] was inactive.
As for `CCCCCCCCCC(=O)N[C@@H](Cc1c[nH]c2ccccc12)C(=O)N[C@H](CC(N)=O)C(=O)N[C@@H](CC(=O)O)C(=O)N[C@@H]1C(=O)NCC(=O)N[C@@H](CCCN)C(=O)N[C@@H](CC(=O)O)C(=O)N[C@H](C)C(=O)N[C@@H](CC(=O)O)C(=O)NCC(=O)N[C@H](CO)C(=O)N[C@@H]([C@@H](C)CC(=O)O)C(=O)N[C@@H](CC(=O)c2ccccc2N)C(=O)O[C@@H]1C`, the Activity entry is “Non-Toxic” with Erythrocyte and “Toxic” in the series on HEK293. The solubility result in series [14] is “Soluble”.
Turning to `CCCCCCCCCC(=O)N[C@@H](Cc1cn(C)c2ccccc12)C(=O)N[C@@H](CC(N)=O)C(=O)N[C@@H](CC(=O)O)C(=O)N[C@@H]1C(=O)NCC(=O)N[C@@H](CCCN)C(=O)N[C@@H](CC(=O)O)C(=O)N[C@H](C)C(=O)N[C@@H](CC(=O)O)C(=O)NCC(=O)N[C@H](CO)C(=O)N[C@@H]([C@H](C)CC(=O)O)C(=O)N[C@@H](CC(=O)c2ccccc2N)C(=O)O[C@@H]1C`, the MIC against Staphylococcus aureus [15] came to 0.5 mg/L (≈ 0.306 µM); in the series with Staphylococcus aureus [16] it was 0.5 mg/L (≈ 0.306 µM); with Staphylococcus aureus [17] it was 0.25 mg/L (≈ 0.153 µM); with Enterococcus faecium [18], 1 mg/L (≈ 0.612 µM); with Enterococcus faecium [19] it was 1 mg/L (≈ 0.612 µM); against Staphylococcus aureus [20], 0.5 mg/L (≈ 0.306 µM). Also, the minimal inhibitory concentration (MIC) against Staphylococcus aureus [21] and against Enterococcus faecalis [22] was 2 mg/L (≈ 1.22 µM) each time.
For `CCCCCCCCCC(=O)N[C@@H](Cc1c[nH]c2ccccc12)C(=O)N[C@@H](CC(N)=O)C(=O)N[C@@H](CC(=O)O)C(=O)N[C@@H]1C(=O)NCC(=O)N[C@@H](CCCN)C(=O)N[C@H](CC(=O)O)C(=O)N[C@H](C)C(=O)N[C@@H](CC(=O)O)C(=O)NCC(=O)N[C@H](CO)C(=O)N[C@@H]([C@@H](C)CC(=O)O)C(=O)N[C@@H](CC(=O)c2ccccc2N)C(=O)O[C@@H]1C`, the result in the series with Staphylococcus aureus [1], with Staphylococcus aureus [2], in the series with Enterococcus faecalis [23], in the series with Enterococcus faecalis [24], in the series with Staphylococcus aureus [5] and in the series with Staphylococcus aureus [7] was Active. Also, the result in the series on Enterococcus faecalis [25], in the series on Enterococcus faecalis [9], with Staphylococcus aureus [12], with Enterococcus faecalis [13] and in the series with Enterococcus faecalis [26] was Active. Further, the outcome in the series with Staphylococcus aureus [4] and in the series with Enterococcus faecalis [8] was inactive.
